In patent publication US20140030368A1, “COMPOSITION FOR PREVENTING OR TREATING A RESPIRATORY DISEASE CONTAINING A MIXED HERBAL EXTRACT OF CNIDIUM OFFICINALE ROOT AND POLYGONI CUSPIDATI ROOT” (WHANIN PHARMACEUTICAL CO., LTD., priority 2011, published 2014):

Tests used:
[1] = Test for expectorant activity (phenol red in trachea); assay type: in vivo, mice
Protocol: Using the method of Engler et al. ([…]. Pharmacol. […] Jian-Hua Shang et al, J. Ethnopharmacology, 129, 293-298, 2010), the expectorant activity of the extract of the present invention was measured. […] Orientbio, Korea) were divided into groups, each consisting of 10 mice. […] After 30 minutes, the mice were subjected to cervical dislocation, and blood was discharged from the abdominal aorta, after which the trachea was completely excised. The isolated trachea was cold-stored in 1 ml of physiological saline.

[2] = test system: croton oil-induced ear edema; test: Croton oil-induced ear edema; assay type: in vivo, mice; conditions: oral dose 100 mg/kg
Protocol: When croton oil is applied to the skin, an inflammatory reaction occurs to produce redness, a swelling and a blister on the applied surface (Archives of Pharmacal Research, 1993, 16[1], 18-24).
As experimental animals, male ICR mice (weighed 20-23 g; Orientbio, Korea) were divided into groups, each consisting of 10 mice. Each of the test samples and the comparative drug COX-2 inhibitor Celecoxib (100 mg/kg, Pfizer) was orally administered into the mice which have been fasted for one day, and after 1 hour, a solution of 3% croton oil in acetone was applied uniformly to the inner and outer sides of the right ear of each mouse to induce ear edema.

5-lipoxygenase = target: T1, 5-lipoxygenase (Rattus norvegicus, UniProt P12527); test: 5-Lipoxygenase inhibitory activity (leukotriene production in RBL-1 cells, cysteinyl leukotriene EIA); assay type: cell-based; conditions: RBL-1, read-out: 5-lipoxygenase inhibition rate(%)
T1 construct: rat basophilic leukemia cells (RBL-1) were stabilized using serum-free RPMI medium; endogenous in cells; host or cells: RBL-1 (rat basophilic leukemia cells)
Protocol: Specifically, rat basophilic leukemia cells (RBL-1) were stabilized using serum-free RPMI medium at 37° C., and each of the extracts and arachidonic acid as a substrate were added thereto and incubated for 15 minutes to produce leukotriene. The amount of the produced leukotriene was measured using a cysteinyl leukotriene EIA kit. As comparative drugs, the 5-lipoxygenase inhibitors zileuton and montelukast were used.

[3] = test system: leukocytes in the bronchoalveolar lavage; test: Test for inhibition of bronchial inflammation, leukocytes in bronchoalveolar lavage of ovalbumin-sensitized mice; assay type: in vivo; conditions: oral 10 mg/kg b.i.d.
Protocol: Specifically, BALB/c female mice (6.5 weeks old, SLC, Japan) were sensitized by intraperitoneal administration of 0.2 ml of a 1:1 mixture of 10 μg of ovalbumin (OVA, Sigma) and 4 mg of aluminum hydroxide (Alum, Pierce) at days 0, 7 and 14. At 8 days and 10 days after the final sensitization, aerosol prepared from 1.0% ovalbumin using high-pressure compressed air was sprayed into the mice for 50 minutes to induce airway inflammation. As a comparative drug, 10 mg/kg of rolipram (Sigma) was used. The comparative drug and the test materials were orally administered twice (morning and evening) a day during a period ranging from 21 days to 23 days after the first sensitization. At 24 hours after the final induction of inflammation, the bronchoalveoli were laved with 1.5 ml of phosphate buffered saline (pH 7.2) to collect a bronchoalveolar lavage. The number of leukocytes in the lavage was counted using a hematology analyzer (Drew Scientific Inc., HEMAVET HV950FS, M-950HV).

[4] = test system: extracted bronchi of guinea pigs; test: Test for bronchoconstriction (in vitro), ovalbumin-induced constriction of isolated sensitized bronchi; conditions: Cavia porcellus, read-out: Bronchoconstriction inhibition rate(%)
Protocol: The comparative drug rolipram was used at a concentration of 20 μM, and each of the extracts was used at a concentration of 0.3 mg/ml.
Specifically, Hartely male guinea pigs (400-500 g, BGI, Korea) were sensitized by intravenous injection with 2 ml/kg of anti-ovalbumin anti-serum. At 48 hours after sensitization, the guinea pigs were sacrificed and the bronchi were extracted therefrom. Then, other tissues attached to the bronchi were removed using a tyrode solution, and each of the bronchi was cut in a ring shape containing 2-3 cartilages. Then, the cartilage portion of the ring was excised while the bronchial muscle was preserved. Then, a string was connected to both sides of each bronchus which was then suspended in an organ bath and stabilized for a predetermined time. Then, 10 μg/ml of carbachol was added to induce the maximum constriction of the bronchi which were then washed with a tyrode solution and stabilized. Next, 5 μM of indomethacin was added to each bronchus, and after 1 minute, each of the extracts was added to each bronchi, and after 5 minutes, 20 μg/ml of ovalbumin was added to induce bronchoconstriction. […] The relaxation of the bronchi was measured using a physiological activity meter connected (powerlab 8/30, AD Instrument) with a force transducer (WPI).

[5] = test system: citric acid-induced coughing; test: Test for antitussive activity (citric acid-induced coughing); assay type: in vivo, guinea pigs; conditions: Oral dose 50 mg/kg
Protocol: In order to evaluate the antitussive activity of the extract of the present invention (American Journal of Respiratory and Critical Care Medicine, 1998, 158 [1], 42-48), the extract of Example 2 was administered into guinea pigs, and then citric acid was sprayed into the guinea pig to induce coughing, after which the number of coughs was measured. Citric acid is frequently used in studies on the activity of airway sensory nerves, and the inhalation of citric acid causes bronchoconstriction, nasal stimulation, coughing, bronchial hypersensitivity and the like.
Specifically, as experimental animals, Hartely male guinea pigs (weighed 350-400 g; Orientbio, Korea) were divided into groups, each consisting of 10-12 animals. Each of the extract of Example 2 and 50 mg/kg of the comparative drug theobromine (Sigma) was administered orally into the grouped mice which have been fasted for one day. After 1 hour, 0.3M citric acid as a cough inducer was sprayed into the animals to induce coughing.

T1 sequence (P12527 whole entry): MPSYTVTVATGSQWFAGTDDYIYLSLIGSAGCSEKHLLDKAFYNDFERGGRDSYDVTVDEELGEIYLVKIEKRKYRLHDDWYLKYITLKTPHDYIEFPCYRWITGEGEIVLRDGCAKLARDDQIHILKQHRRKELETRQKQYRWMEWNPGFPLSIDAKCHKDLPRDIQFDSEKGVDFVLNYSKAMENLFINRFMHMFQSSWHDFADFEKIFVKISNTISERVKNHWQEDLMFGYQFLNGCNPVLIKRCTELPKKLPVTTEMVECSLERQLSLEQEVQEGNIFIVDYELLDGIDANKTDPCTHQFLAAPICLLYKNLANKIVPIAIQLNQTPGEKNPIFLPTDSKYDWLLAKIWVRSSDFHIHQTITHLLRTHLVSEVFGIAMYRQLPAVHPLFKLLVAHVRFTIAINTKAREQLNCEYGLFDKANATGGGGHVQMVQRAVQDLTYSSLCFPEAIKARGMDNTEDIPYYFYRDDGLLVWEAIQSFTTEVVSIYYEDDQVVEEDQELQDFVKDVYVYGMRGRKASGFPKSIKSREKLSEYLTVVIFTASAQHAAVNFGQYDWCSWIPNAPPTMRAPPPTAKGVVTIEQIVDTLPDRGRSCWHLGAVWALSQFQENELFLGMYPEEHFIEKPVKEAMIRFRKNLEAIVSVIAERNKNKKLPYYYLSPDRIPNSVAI

SMILES: Nc1c(Br)cc(Br)cc1CN[C@H]1CC[C@H](O)CC1 [Ambroxol, ambroxol]
- Expectorant activity (%) ([1]; Oral dose 250 mg/kg): 27%

SMILES: Cc1ccc(-c2cc(C(F)(F)F)nn2-c2ccc(S(N)(=O)=O)cc2)cc1 [Celecoxib]
- Ear edema inhibition rate (%) [2]: 17%

SMILES: [Cl-].[Cl-].[Mg+2] [Magnesium chloride]
- Expectorant activity (%) ([1]; Oral dose 500 mg/kg): 33%

SMILES: CC(c1cc2ccccc2s1)N(O)C(N)=O (stereo not shown) [Zileuton, zileuton]
- inhibition at 1 µM (5-lipoxygenase): 63%

SMILES: COc1ccc(C2CNC(=O)C2)cc1OC1CCCC1 (stereo not shown) [rolipram]
- Inhibition rate (%) of pulmonary bronchial inflammation [3]: 22%
- inhibition at 20 µM [4]: 62%

SMILES: Cn1cnc2c1c(=O)[nH]c(=O)n2C [theobromine]
- Cough inhibition rate (%) [5]: 36%
